Results reported in patent publication US20250346613A1, “BORIC ACID PROTEASOME INHIBITOR AND USE THEREOF” (ARTIVILA BIOPHARMA, priority 2022, published 2025).

Experiment: Blood concentration measurement of orally-administrated mice
Assay type: in vivo, C57BL/6JNifdc mice
Settings: C57BL/6JNifdc, mouse, plasma, oral, 30 mg/kg; for concentration at 0.5 h: read-out: Average blood compound concentration (μM) 0.5 h; for concentration at 1 h: read-out: Average blood compound concentration (μM) 1.0 h; for concentration at 1.5 h: read-out: Average blood compound concentration (μM) 1.5 h; for concentration at 2 h: read-out: Average blood compound concentration (μM) 2.0 h
Procedure: The C57BL/6JNifdc mice used in this experiment were provided by Zhejiang Vital River Laboratory Animal Technology Co., Ltd. The compounds were dissolved in DMSO/Solutol/Saline (v/v/v=10/10/80) as a stock solution (3 mg/mL). The stock solution was administrated orally to 6 C57BL/6JNifdc mice at a dose of 30 mg/kg. Blood was collected from the orbital venous plexus at 0.5 h, 1 h, 1.5 h, and 2 h after oral administration.
Approximately 200 μL of blood samples were collected into EDTAK2 Blood Collection tubes and then immediately centrifuged at 10,000 rpm for 5 min. 66 μL of plasma supernatant was added with 198 μL of acetonitrile (Energy), the resulting mixture was shaken on a vortex for 5 min, and then immediately centrifuged at 13000 rpm for 8 min. 200 μL of supernatant was taken for blood compound concentration measurement.
The compound was accurately weighed and dissolved in acetonitrile to a concentration of 100 μg/mL. 50 μL of compound was pipetted and added to 4.95 mL of acetonitrile/water (v/v=3/1) solution to obtain 1000 ng/mL mother liquid. 650 μL of the mother liquid was taken and sequentially diluted with a solution of acetonitrile/water (v/v=3/1) in a 2-fold gradient to obtain standard samples with various concentrations of 500 ng/mL, 250 ng/mL, 125 ng/mL, 62.5 ng/mL, and 31.25 ng/mL.
Standard solutions with concentrations of 1000 ng/mL, 500 ng/mL, 250 ng/mL, 125 ng/mL, 62.5 ng/mL, and 31.25 ng/mL were measured by using LC-MS (LC-MS 2020+LC-2030 Plus, Shimadzu) SIM mode to obtain a calibration curve. The treated blood samples were measured by this method and then subjected to quantitative analysis by using the calibration curve to obtain compound concentration data of each treated blood sample.
The data were exported and the average blood compound concentration at each sampling time was calculated.
Blood compound concentration=compound concentration in treated blood sample×4/molecular weight of the compound. The average blood compound concentration is the average of the compound concentrations in the blood at each sampling time.

| concentration at 0.5 h | concentration at 1 h | concentration at 1.5 h | concentration at 2 h | SMILES |
| --- | --- | --- | --- | --- |
| 23 µM | 20 µM | 22 µM | 16 µM | Cc1ccc(C[C@H](NC(=O)C(C)C(=O)NCc2ccc(Cl)cc2Cl)B(O)O)cc1 (stereo partly drawn) [Example 59, ((1R)-1-(3-((2,4-dichlorobenzyl)amino)-2-methyl-3-oxopropionamido)-2-(p-tolyl)ethyl)boric acid] |
| 23 µM | 24 µM | 15 µM | 16 µM | COc1cccc(CCNC(=O)C(C)C(=O)N[C@@H](Cc2coc3ccccc23)B(O)O)c1 (stereo partly drawn) [Example 63, ((1R)-2-(benzofuran-3-yl)-1-(3-((3-methoxyphenylethyl)amino)-2-methyl-3-oxopropionamido)ethyl)boric acid] |
